The results in this text go back to PMC10709440, “High-throughput ligand profile characterization in novel cell lines expressing seven heterologous insect olfactory receptors for the detection of volatile plant biomarkers” (Scientific Reports, 2023).

Molecules are shown by their SMILES. Read-outs that look alike come from different tables or passages of the source.

For one experiment, the target named is T1, Drosophila OR71a (Drosophila melanogaster, UniProt Q9VUK5).
T1 construct: expressed in transfected cells
T1 sequence (Q9VUK5 1-378): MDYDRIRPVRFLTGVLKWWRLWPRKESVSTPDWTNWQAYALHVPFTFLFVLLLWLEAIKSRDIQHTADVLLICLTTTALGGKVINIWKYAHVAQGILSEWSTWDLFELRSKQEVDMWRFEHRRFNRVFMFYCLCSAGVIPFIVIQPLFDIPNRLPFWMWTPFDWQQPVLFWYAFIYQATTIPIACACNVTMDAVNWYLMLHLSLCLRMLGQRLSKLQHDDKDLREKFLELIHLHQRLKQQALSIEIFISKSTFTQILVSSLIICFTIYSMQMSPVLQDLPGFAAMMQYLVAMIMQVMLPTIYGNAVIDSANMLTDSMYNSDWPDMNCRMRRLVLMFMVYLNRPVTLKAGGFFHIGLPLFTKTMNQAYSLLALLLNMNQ
T1 sequence (Q9VNB5 1-486 partner): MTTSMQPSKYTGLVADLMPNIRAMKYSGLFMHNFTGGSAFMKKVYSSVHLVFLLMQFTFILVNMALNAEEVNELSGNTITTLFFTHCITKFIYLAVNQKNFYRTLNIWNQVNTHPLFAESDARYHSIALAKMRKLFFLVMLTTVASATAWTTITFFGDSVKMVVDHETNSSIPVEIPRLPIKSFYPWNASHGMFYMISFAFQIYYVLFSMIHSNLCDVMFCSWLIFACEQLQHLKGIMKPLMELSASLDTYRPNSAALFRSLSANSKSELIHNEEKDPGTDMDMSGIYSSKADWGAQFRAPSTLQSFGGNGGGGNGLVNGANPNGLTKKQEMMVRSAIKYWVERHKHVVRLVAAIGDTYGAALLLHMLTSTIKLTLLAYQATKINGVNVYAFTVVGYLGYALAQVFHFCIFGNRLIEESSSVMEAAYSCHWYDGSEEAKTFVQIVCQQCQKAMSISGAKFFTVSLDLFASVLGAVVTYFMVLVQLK
Briefly: Calcium ion fluorescence (GCaMP6) assay, OR71a stable HEK293 cell line. The format is cell-based. The arrangement: key to DF norm AVERAGE OR71a: VOC ∆F divided by the plate's mean ∆F response to 50 µM VUAA1. To be noted: for activation at 1 µM / activation at 10 µM / activation at 100 µM: HEK293, read-out: OR71a response (VUAA1-normalized response); for Average response: OR71a cell line, VUAA1-normalized response, mean of biological replicates; for DF norm AVERAGE OR71a: threshold 0.05, below shown as 0. The method in brief:
(§1)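 Responses are VUAA1-normalized ΔF: each VOC-evoked calcium signal, (FMAX−F0)/F0 over 30 s after injection, divided by the same line's mean 50 µM VUAA1 response. Cells were doxycycline-induced HEK293 with GCaMP6 and the cognate Drosophila OR, in HEPES buffer pH 7.3; ligands tested 0.01–100 μM.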

The target of a further experiment is T2, Drosophila OR98a (Drosophila melanogaster, UniProt Q9VAZ3).
T2 construct: expressed in transfected cells
T2 sequence (Q9VAZ3 1-397): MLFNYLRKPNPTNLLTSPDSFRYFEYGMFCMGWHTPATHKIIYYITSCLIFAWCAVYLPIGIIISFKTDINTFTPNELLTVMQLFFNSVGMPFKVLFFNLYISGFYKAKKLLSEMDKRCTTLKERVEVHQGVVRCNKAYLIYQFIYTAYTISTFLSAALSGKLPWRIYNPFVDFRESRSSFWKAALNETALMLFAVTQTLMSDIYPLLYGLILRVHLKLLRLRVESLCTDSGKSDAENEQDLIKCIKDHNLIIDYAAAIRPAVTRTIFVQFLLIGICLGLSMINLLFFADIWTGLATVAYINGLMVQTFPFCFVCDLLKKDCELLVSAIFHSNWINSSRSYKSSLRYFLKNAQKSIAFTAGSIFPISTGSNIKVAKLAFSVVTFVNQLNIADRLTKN
T2 sequence (Q9VNB5 1-486 partner): T1 sequence (Q9VNB5 1-486 partner)
Put plainly: Calcium ion fluorescence (GCaMP6) assay, OR98a stable HEK293 cell line. The arrangement: key to DF norm AVERAGE OR98a: VOC ∆F divided by the plate's mean ∆F response to 50 µM VUAA1. To be noted: for DF norm AVERAGE OR98a: threshold 0.05, below shown as 0. Type of experiment: cell-based. The procedure, abridged:
as §1

[1] abbreviates: ligand concentration 1 (unit not given).
Where [2] appears, read: ligand concentration 10 (unit not given).
Where [3] appears, read: ligand concentration 100 (unit not given).
Setting [4] is: HEK293, read-out: Average response.
Where [5] appears, read: HEK293, read-out: OR98a response (VUAA1-normalized response).

Turning to `CCCC(=O)OCC` [ethyl butyrate], the activation at 1 µM at Drosophila OR71a was determined as 0%; on Drosophila OR98a (setting [4]) it was 3.54%; at Drosophila OR98a (setting [5]) it was 0%. The activation at 10 µM on Drosophila OR71a, at Drosophila OR98a (setting [4]) and at Drosophila OR98a (setting [5]) was 0% each time. In addition, the activation at 100 µM on Drosophila OR71a came out at 0%; at Drosophila OR98a (setting [4]), 6.6%; at Drosophila OR98a (setting [5]) it was 6.6%. The Average response on Drosophila OR71a (cc. 1 µM), on Drosophila OR71a (cc. 10 µM) and on Drosophila OR71a (cc. 100 µM) was 0.00 in each case. The “DF norm AVERAGE OR71a” value at Drosophila OR71a (setting [1]), on Drosophila OR71a (setting [2]) and on Drosophila OR71a (setting [3]) was 0 in each case. The “DF norm AVERAGE OR98a” value is on record as 0 on Drosophila OR98a (setting [1]), 0 on Drosophila OR98a (setting [2]) and 0.06596 at Drosophila OR98a (setting [3]).
`CCCCCC(=O)OCC` [ethyl hexanoate]: the activation at 1 µM was 0% at Drosophila OR71a, 5% at Drosophila OR98a (setting [4]) and 0% on Drosophila OR98a (setting [5]). Further, the activation at 10 µM was 0% on Drosophila OR71a, 12% at Drosophila OR98a (setting [4]) and 12% at Drosophila OR98a (setting [5]). Further, the values for the activation at 100 µM on Drosophila OR71a, at Drosophila OR98a (setting [4]) and at Drosophila OR98a (setting [5]) were 0%, 3.29% and 0%, respectively. The results for the Average response on Drosophila OR71a (cc. 1 µM), on Drosophila OR71a (cc. 10 µM) and at Drosophila OR71a (cc. 100 µM) were 0.0156, 0.0153 and 0.00, respectively. Further, the “DF norm AVERAGE OR71a” value on Drosophila OR71a (setting [1]), at Drosophila OR71a (setting [2]) and at Drosophila OR71a (setting [3]) was 0 each time. The results for the “DF norm AVERAGE OR98a” value on Drosophila OR98a (setting [1]), at Drosophila OR98a (setting [2]) and on Drosophila OR98a (setting [3]) were 0, 0.1164 and 0, respectively.
As for `CC/C=C\CCO` [E-3-hexenol], the “OR71a response (VUAA1-normalized response)” value on Drosophila OR71a (VOC concentration 1 μM), at Drosophila OR71a (VOC concentration 10 μM) and on Drosophila OR71a (VOC concentration 100 μM) was 0.00 in each case. Also, the “OR98a response (VUAA1-normalized response)” value at Drosophila OR98a (VOC concentration 1 μM), on Drosophila OR98a (VOC concentration 10 μM) and at Drosophila OR98a (VOC concentration 100 μM) was 0.00 each time.
With `CCc1ccccc1` [ethylbenzene], the activation at 1 µM on Drosophila OR71a, on Drosophila OR98a (setting [4]) and on Drosophila OR98a (setting [5]) was 0% each time. Moreover, the activation at 10 µM on Drosophila OR71a came to 0%; on Drosophila OR98a (setting [4]), 12%; at Drosophila OR98a (setting [5]) it was 12%. Moreover, the activation at 100 µM on Drosophila OR71a, on Drosophila OR98a (setting [4]) and at Drosophila OR98a (setting [5]) was 0% throughout. Moreover, the Average response on Drosophila OR71a (cc. 1 µM) is 0.023; on Drosophila OR71a (cc. 10 µM) it was 0.0127; at Drosophila OR71a (cc. 100 µM), 0.0277. Moreover, the “DF norm AVERAGE OR71a” value at Drosophila OR71a (setting [1]), on Drosophila OR71a (setting [2]) and on Drosophila OR71a (setting [3]) was 0 each time. The “DF norm AVERAGE OR98a” value amounted to 0 at Drosophila OR98a (setting [1]), 0.1169 on Drosophila OR98a (setting [2]) and 0 at Drosophila OR98a (setting [3]).
